Measurements reported in patent US20050049294A1, “Methods of using [3.2.0] heterocyclic compounds and analogs thereof” (priority 2003, published 2005).
Where “and” joins values, the source holds several entries; their conditions need not be identical. Equal values may be shown once.

Experiments:
[1] = test system: MIA PaCa-2 cells; assay: Cell growth inhibition (resazurin, 48 hours), MIA PaCa-2; format: cell-based; details: Table 2, MIA PaCa-2, human pancreatic carcinoma, read-out: EC50 (nM), mean ± SD
[2] = test system: Caspase-3 activity in Jurkat cells; assay: Caspase-3 activity assay in Jurkat cells; format: cell-based, human; details: EC50 concentration, 19 hours
Protocol: Jurkat cells were plated at 2×10^6 cells/3 mL per well in a 6-well plate and incubated at 37° C., 5% (v/v) C02 and 95% (v/v) humidity. […] Bhalla, et al., Blood 82:3133 (1993). […] Cells treated with 0.25% DMSO served as the negative control. The cells were collected by centrifugation and the media removed. Cell pellets were processed for the Caspase-3 activity assay as described in the manufacturer's protocol (EnzChek Caspase-3 Assay Kit from Molecular Probes (E-13183; see Appendix G, which form a part of this application and is also available at hypertext transfer protocol on the worldwide web at “probes.com/media/pis/mp13183.pdf.”. In brief, cell pellets were lysed on ice, mixed with the EnzChek Caspase-3 components in a 96-well plate, and then incubated in the dark for 30 minutes prior to reading fluorescence of cleaved benzyloxycarbonyl-DEVD-AMC using a Packard Fusion with λex=485 nm and λem=530 nm filters. Protein concentrations for lysates were determined using the BCA Protein Assay Kit (Pierce) and these values were used for normalization.

[3] = test system: Jurkat cells; assay: Cytotoxicity against Jurkat cells; format: cell-based, human
[4] = biological target: T1, chymotrypsin-like proteasome activity in packed whole blood lysate (Mus musculus, UniProt O55234); assay: Whole blood proteasome activity (packed whole blood lysate, PWBL) of treated mice; format: in vivo
T1 construct: The supernatant (Packed Whole Blood Lysate, PWBL) was transferred to a fresh tube; from tissue; host or cells: packed whole blood cells of Swiss-Webster mice, hypotonic lysate
Protocol: In brief, frozen whole blood samples were thawed on ice for one hour, and resuspended in 700 μL of ice cold 5 mM EDTA, pH 8.0 in order to lyse the cells by hypotonic shock. This represents approximately 2-3 times the volume of the packed whole blood cells. Lysis was allowed to proceed for one hour, and the cellular debris was removed by centrifuigation at 14,000×g for 10 minutes. The supernatant (Packed Whole Blood Lysate, PWBL) was transferred to a fresh tube, and the pellet discarded. Protein concentration of the PWBL was determined by BCA assay (Pierce) using BSA as a standard.
Proteasome activity was determined by measuring the hydrolysis of a fluorogenic substrate specific for the chymotrypsin-like activity of proteasomes (suc-LLVY-AMC, Bachem Cat. 1-1395). […] Hydrolysis of the substrate results in the release of free AMC, which was measured fluorometrically by using λex=390 nm and λem=460 nm. The rate of hydrolysis in this system is linear for at least one hour. The hydrolysis rate of each sample is then normalized to relative fluorescent units per milligram of protein (RFU/mg).
The vehicle control consisted of 2% DMSO in 10% solutol. […] Packed whole blood cells were collected by centrifugation, washed with PBS, and re-centrifuged. All samples were stored at −80° C. prior to the evaluation of the proteasome activity. […]

[5] = Maximum Tolerated Dose (MTD) determination; format: in vivo, BALB/c mice
Description: In vivo studies were designed to determine the MTD of Salinosporamide A when administered intravenously to female BALB/c mice.
Animals were observed daily for clinical signs and were weighed individually twice weekly until the end of the experiment (maximum of 14 days after the last day of dosing).

[6] = Solubility assessment; details: PBS, pH 7.4, aqueous buffer
Description: (§1) These studies consisted of solubility assessment, LogD^7.4 determination and a preliminary screen to detect cytochrome P450 enzyme inhibition.

[7] = LogD7.4 determination; details: pH 7.4
Description: as §1

[8] = test system: LeTx-induced cytotoxicity of RAW264.7 cells
[9] = in vitro; details: mouse
[10] = biological target: CYP2D6 (Homo sapiens, UniProt P10635); assay: Preliminary P450 inhibition screen, CYP2D6
Description: as §1

[11] = test system: PANC-1 cells; assay: Cell growth inhibition (resazurin, 48 hours), PANC-1; format: cell-based; details: Table 2, PANC-1, human pancreatic carcinoma, read-out: EC50 (nM), mean ± SD
[12] = test system: CCD-27sk cells; assay: Cytotoxic activity against normal human fibroblasts; format: cell-based; details: 48h, panel of b226
[13] = test system: 60 human tumor cell lines; assay: NCI screen of 60 human tumor cell lines; format: cell-based; details: 48 h, read-out: mean GI50
[14] = test system: LPS-induced plasma TNF; assay: Inhibition of in vivo LPS-induced TNF; details: 0.125 or […] i.v., 30 minutes post-LPS (2 mg/kg i.p.), mice
Protocol: Male Swiss Webster mice (12/group weighing 20-25 g) were injected with LPS (2 mg/kg) by the i.p. route. […] Ninety minutes after LPS injection, the mice were anesthetized with Isoflurane and bled by cardiac puncture to obtain plasma. Remaining blood pellet was then resuspended in 500 μL of PBS to wash away residual serum proteins and centrifuged again. Supernatant was removed and blood pellet frozen for analysis of proteasome inhibition in packed whole blood lysate.
Animals were dosed i.v. with 4 ml/kg. A vehicle control solution was also prepared by making the same 1:160 dilution with 100% DMSO into 10% solutol solution giving a final concentration of 9.375% solutol in water and 0.625% DMSO. Measurements of plasma TNF were performed using the Biosource mTNF Cytoset kit (Biosource Intl., Camarillo, Calif.; catalog #CMC3014) according to manufacturer's instructions. Samples were diluted 1:60 for the assay.

[15] = biological target: CYP2C19 (Homo sapiens, UniProt P33261); assay: Preliminary P450 inhibition screen, CYP2C19
Description: as §1

[16] = test system: IκBα in HEK293 cells and NF-κB/Luc 293 reporter clone; assay: Western blot of phosphorylated-IκBα and total IκBα; format: cell-based, human; details: 50 and 500 nM, 1 hour pre-treatment, TNF-α 10 ng/mL 30 minutes
Protocol: Endogenous protein levels were assessed in both HEK293 cells and the NF-κB/Luc 293 reporter clone.
Antibodies against total and phosphorylated forms of IκBα were used to determine the endogenous level of each protein and anti-Tubulin antibody was used to confirm equal loading of protein.

T1 sequence (O55234 60-264): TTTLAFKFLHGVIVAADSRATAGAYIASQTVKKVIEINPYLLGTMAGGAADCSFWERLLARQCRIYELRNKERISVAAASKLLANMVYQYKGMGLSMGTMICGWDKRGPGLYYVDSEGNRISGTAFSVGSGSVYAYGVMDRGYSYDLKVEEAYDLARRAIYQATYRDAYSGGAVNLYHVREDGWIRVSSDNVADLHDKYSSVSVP
Chain of CYP2C19 (P33261 whole entry): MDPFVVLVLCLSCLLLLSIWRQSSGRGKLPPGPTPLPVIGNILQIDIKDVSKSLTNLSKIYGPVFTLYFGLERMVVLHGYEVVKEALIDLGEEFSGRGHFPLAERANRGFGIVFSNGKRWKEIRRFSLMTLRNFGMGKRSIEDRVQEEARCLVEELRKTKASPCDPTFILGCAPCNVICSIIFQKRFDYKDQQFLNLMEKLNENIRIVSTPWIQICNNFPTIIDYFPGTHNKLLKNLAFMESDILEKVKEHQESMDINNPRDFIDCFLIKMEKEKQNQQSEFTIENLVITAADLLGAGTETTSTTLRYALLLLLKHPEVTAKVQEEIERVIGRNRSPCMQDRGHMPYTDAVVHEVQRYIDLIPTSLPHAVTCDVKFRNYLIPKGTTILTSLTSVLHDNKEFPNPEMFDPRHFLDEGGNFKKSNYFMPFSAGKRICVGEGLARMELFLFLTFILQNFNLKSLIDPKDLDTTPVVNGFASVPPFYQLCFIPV
Chain of CYP2D6 (P10635 whole entry): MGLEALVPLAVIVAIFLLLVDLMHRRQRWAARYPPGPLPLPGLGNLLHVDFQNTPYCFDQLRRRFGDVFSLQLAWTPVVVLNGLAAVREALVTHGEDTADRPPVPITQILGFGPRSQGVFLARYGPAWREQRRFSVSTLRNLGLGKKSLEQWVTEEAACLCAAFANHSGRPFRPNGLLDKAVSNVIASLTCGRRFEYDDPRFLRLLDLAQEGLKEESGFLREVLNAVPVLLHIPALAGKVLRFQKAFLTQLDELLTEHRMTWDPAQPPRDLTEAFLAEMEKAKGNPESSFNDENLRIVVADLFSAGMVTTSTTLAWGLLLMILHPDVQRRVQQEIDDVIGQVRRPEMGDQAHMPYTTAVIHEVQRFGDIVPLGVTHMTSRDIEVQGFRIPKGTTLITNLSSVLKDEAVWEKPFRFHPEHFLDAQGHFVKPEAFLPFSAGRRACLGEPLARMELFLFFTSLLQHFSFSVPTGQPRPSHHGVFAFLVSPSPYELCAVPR

Q: Which results are given for `C[C@@]12OC(=O)[C@]1([C@@H](O)[C@@H]1C=CCCC1)NC(=O)[C@@H]2CCCl` [Formula II-16, Salinosporamide A]?
A: EC50 [1]: 46 nM; Caspase-3 activity [2]: activation of Caspase-3; EC50 ([3]; Homo sapiens, Jurkat): 10 nM; % max cell kill ([3]; Table 5, Jurkat Cells): 97%; proteasomal activity in PWBL ([4]; male Swiss-Webster mice, i.v. or oral, 90 minutes after administration (FIG. 40)): profound decrease in proteasomal activity in PWBL; inhibition at […] ([4]; mouse, iv, 0.25 mg/kg i.v., mice, read-out: ex vivo proteasome inhibition in packed whole blood): 94 ± 3%; behavioral changes during the course of the experiment ([5]; 0.01 to 0.5 mg/kg i.v.): No behavioral changes were noted; dose well tolerated when administered daily for five consecutive days ([5]; i.v., qdx5, female BALB/c mice): up to 0.1 mg/kg; single intravenous dose tolerated ([5]; i.v., single dose (qdx1), female BALB/c mice): up to 0.25 mg/kg; solubility [6]: 9.6 µM and 3 µg/mL; LogD7.4 [7]: 2.4; cell-viability, compound + LeTx [8]: 82%; increase in the viability of LeTx-treated cells compared to LeTx treatment alone [8]: 10 fold; EC50 ([8]; read-out: average EC50, viability of LeTx-treated cells): 3.6 nM; viability at […] [9]: 96%; inhibition at 10 µM [10]: 19%; EC50 [11]: 60 nM; EC50 [12]: 196 nM; GI50 [13]: < 10 nM; reduction of LPS-induced plasma TNF levels [14]: approximately 65%; inhibition at 10 µM [15]: 22%; degradation of total IκBα and phospho-IκBα level [16]: reduced the degradation of total IκBα but also retained the phospho-IκBα level
